Test results from patent publication US8889667B2 (Agios Pharmaceuticals, Inc, priority 2010, dated 2014).

molecular target: PKM2 (Homo sapiens, UniProt P14618); assay: PKM2 Assay (activation, LDH-coupled, absorbance at 340 nm); format: biochemical; details: Table 4
Summary of the method: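 Read-out was the 340 nm NADH absorbance change at 25 °C in an LDH-coupled system (PEP 0.15 mM, NADH 180 μM, ADP 0.7 mM to initiate) in 50 mM Tris pH 7.5, 100 mM KCl, 5 mM MgCl2. PKM2 at 50 ng/well was first preincubated with compound for 30 min at 4 °C. Activation given as AC50.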

PKM2, sequence (P14618 whole entry): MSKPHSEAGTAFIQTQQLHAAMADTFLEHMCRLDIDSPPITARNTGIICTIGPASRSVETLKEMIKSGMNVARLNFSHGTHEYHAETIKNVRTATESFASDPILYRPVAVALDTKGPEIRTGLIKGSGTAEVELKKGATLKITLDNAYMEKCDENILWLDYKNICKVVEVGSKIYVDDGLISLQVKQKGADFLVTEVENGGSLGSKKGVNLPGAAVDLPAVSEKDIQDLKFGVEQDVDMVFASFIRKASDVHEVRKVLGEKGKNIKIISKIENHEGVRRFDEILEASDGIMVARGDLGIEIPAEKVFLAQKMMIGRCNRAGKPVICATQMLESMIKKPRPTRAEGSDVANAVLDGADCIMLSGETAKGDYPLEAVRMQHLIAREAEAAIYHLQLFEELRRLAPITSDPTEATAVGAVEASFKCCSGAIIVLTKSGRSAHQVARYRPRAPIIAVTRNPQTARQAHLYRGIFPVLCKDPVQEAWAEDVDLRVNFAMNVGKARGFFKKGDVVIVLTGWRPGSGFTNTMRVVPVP

Row | AC50 | Compound
1 | 100 to 500 nM | CC1CN(Cc2c(F)cc(F)cc2F)CC(C)N1C(=O)c1ccc(NS(=O)(=O)c2cccc3cccnc23)cc1 (stereo not drawn) [Compound 202, N-(4-(2,6-dimethyl-4-(2,4,6-trifluorobenzyl)piperazine-1-carbonyl)phenyl)quinoline-8-sulfonamide]
2 | < 100 nM | CC1CN(Cc2cc(F)c(F)cc2F)CC(C)N1C(=O)c1ccc(NS(=O)(=O)c2cccc3cccnc23)cc1 (stereo not drawn) [Compound 203, N-(4-(2,6-dimethyl-4-(2,4,5-trifluorobenzyl)piperazine-1-carbonyl)phenyl)quinoline-8-sulfonamide]
3 | 500 to 1000 nM | CC1CN(CC2CCOC2)CC(C)N1C(=O)c1ccc(NS(=O)(=O)c2cccc3cccnc23)cc1 (stereo not drawn) [Compound 204, N-(4-(2,6-dimethyl-4-((tetrahydrofuran-3-yl)methyl)piperazine-1-carbonyl)phenyl)quinoline-8-sulfonamide]
4 | < 100 nM | C[C@@H]1CN(CC2CCC2)CCN1C(=O)c1ccc(NS(=O)(=O)c2cccc3cccnc23)cc1 [Compound 206, (R)—N-(4-(4-(cyclobutylmethyl)-2-methylpiperazine-1-carbonyl)phenyl)quinoline-8-sulfonamide]
5 | 100 to 500 nM | C[C@H]1CN(CC2CCC2)CCN1C(=O)c1ccc(NS(=O)(=O)c2cccc3cccnc23)cc1 [Compound 207, (S)—N-(4-(4-(cyclobutylmethyl)-2-methylpiperazine-1-carbonyl)phenyl)quinoline-8-sulfonamide]
6 | 100 to 500 nM | C[C@H]1CN(C[C@@H]2CCOC2)CCN1C(=O)c1ccc(NS(=O)(=O)c2cccc3cccnc23)cc1 [Compound 209]
7 | 100 to 500 nM | C[C@H]1CN(C[C@H]2CCOC2)CCN1C(=O)c1ccc(NS(=O)(=O)c2cccc3cccnc23)cc1 [Compound 210]
8 | < 100 nM | C[C@@H]1CN(C[C@H]2CCCO2)CCN1C(=O)c1ccc(NS(=O)(=O)c2cccc3cccnc23)cc1 [Compound 212, N-(4-((R)-2-methyl-4-(((R)-tetrahydrofuran-2-yl)methyl)piperazine-1-carbonyl)phenyl)quinoline-8-sulfonamide]
9 | < 100 nM | O=C(c1ccc(NS(=O)(=O)c2cccc3cccnc23)cc1)N1C2CCC1CN(Cc1ccccc1)C2 [Compound 213]
10 | 100 to 500 nM | O=C1CN(C(=O)c2ccc(NS(=O)(=O)c3cccc4cccnc34)cc2)CCN1CC1CC1 [Compound 214]
11 | < 100 nM | O=C1CN(C(=O)c2ccc(NS(=O)(=O)c3cccc4cccnc34)cc2)CCN1Cc1cc(F)cc(F)c1 [Compound 216, N-(4-(4-(3,5-difluorobenzyl)-3-oxopiperazine-1-carbonyl)phenyl)quinoline-8-sulfonamide]
12 | 100 to 500 nM | O=C(c1ccc(NS(=O)(=O)c2cccc3cccnc23)cc1)N1CC2CCC(C1)N2Cc1cc(F)cc(F)c1 [Compound 218, N-(4-(8-(3,5-difluorobenzyl)-3,8-diazabicyclo[3.2.1]octane-3-carbonyl)phenyl)quinoline-8-sulfonamide]
13 | 100 to 500 nM | O=C(c1ccc(NS(=O)(=O)c2cccc3cccnc23)cc1)N1CC2CCC(C1)N2Cc1ccc(F)cc1 [Compound 219, N-(4-(8-(4-fluorobenzyl)-3,8-diazabicyclo[3.2.1]octane-3-carbonyl)phenyl)quinoline-8-sulfonamide]
14 | < 100 nM | O=C(c1ccc(NS(=O)(=O)c2cccc3cccnc23)cc1)N1CC2CCC(C1)N2CC1CC1 [Compound 221, N-(4-(8-(cyclopropylmethyl)-3,8-diazabicyclo[3.2.1]octane-3-carbonyl)phenyl)quinoline-8-sulfonamide]
15 | < 100 nM | COc1ccccc1N1C[C@@H](C)N(C(=O)c2ccc(NS(=O)(=O)c3cccc4cccnc34)cc2)[C@@H](C)C1 [Compound 222, N-(4-((2R,6S)-4-(2-methoxyphenyl)-2,6-dimethylpiperazine-1-carbonyl)phenyl)quinoline-8-sulfonamide]
16 | < 100 nM | COc1ccccc1N1CCN(C(=O)c2ccc(NS(=O)(=O)c3cccc4cccnc34)cc2)C(C)C1 (stereo not drawn) [Compound 223, N-(4-(4-(2-methoxyphenyl)-2-methylpiperazine-1-carbonyl)phenyl)quinoline-8-sulfonamide]
17 | < 100 nM | O=C(c1ccc(NS(=O)(=O)c2cccc3cccnc23)cc1)N1C2CCC1CN(Cc1ccc(F)cc1)C2 [Compound 226, N-(4-(3-(4-fluorobenzyl)-3,8-diazabicyclo[3.2.1]octane-8-carbonyl)phenyl)quinoline-8-sulfonamide]
18 | 100 to 500 nM | O=C(c1ccc(NS(=O)(=O)c2cccc3cccnc23)cc1)N1C2CCC1CN(Cc1cc(F)cc(F)c1)C2 [Compound 227, N-(4-(3-(3,5-difluorobenzyl)-3,8-diazabicyclo[3.2.1]octane-8-carbonyl)phenyl)quinoline-8-sulfonamide]
19 | 100 to 500 nM | O=C(c1ccc(NS(=O)(=O)c2cccc3cccnc23)cc1)N1C2CCC1CN(CC1CC1)C2 [Compound 228, N-(4-(3-(cyclopropylmethyl)-3,8-diazabicyclo[3.2.1]octane-8-carbonyl)phenyl)quinoline-8-sulfonamide]

same assay, conditions: Table 5

Row | AC50 | Compound
20 | 100 to 500 nM | O=C(c1ccc(NS(=O)(=O)c2cccc3cccnc23)c(OC(F)(F)F)c1)N1CCN(Cc2cncc(F)c2)CC1 [Compound 300]
21 | 100 to 500 nM | O=C(c1ccc(NS(=O)(=O)c2cccc3cccnc23)c(OC(F)(F)F)c1)N1CCN(CC2CC2)CC1 [Compound 301, N-(4-(4-(cyclopropylmethyl)piperazine-1-carbonyl)-2-(trifluoromethoxy)phenyl)quinoline-8-sulfonamide]
22 | 500 to 1000 nM | O=C(c1ccc(NS(=O)(=O)c2cccc3cccnc23)c(OC(F)(F)F)c1)N1CCN(CC2CCOC2)CC1 (stereo not drawn) [Compound 302, N-(4-(4-((tetrahydrofuran-3-yl)methyl)piperazine-1-carbonyl)-2-(trifluoromethoxy)phenyl)quinoline-8-sulfonamide]
23 | 100 to 500 nM | O=C(c1ccc(NS(=O)(=O)c2cccc3cccnc23)c(OC(F)(F)F)c1)N1CCN(CCc2ccccc2)CC1 [Compound 303, N-(4-(4-phenethylpiperazine-1-carbonyl)-2-(trifluoromethoxy)phenyl)quinoline-8-sulfonamide]
24 | 100 to 500 nM | O=C(c1ccc(NS(=O)(=O)c2cccc3cccnc23)c(OC(F)(F)F)c1)N1CCN(Cc2ccncc2F)CC1 [Compound 304, N-(4-(4-((3-fluoropyridin-4-yl)methyl)piperazine-1-carbonyl)-2-(trifluoromethoxy)phenyl)quinoline-8-sulfonamide]
25 | 100 to 500 nM | COc1ccncc1CN1CCN(C(=O)c2ccc(NS(=O)(=O)c3cccc4cccnc34)c(OC(F)(F)F)c2)CC1 [Compound 305, N-(4-(4-((4-methoxypyridin-3-yl)methyl)piperazine-1-carbonyl)-2-(trifluoromethoxy)phenyl)quinoline-8-sulfonamide]
26 | 500 to 1000 nM | O=C(c1ccc(NS(=O)(=O)c2cccc3cccnc23)c(OC(F)(F)F)c1)N1CCN(Cc2cccc(Cl)c2Cl)CC1 [Compound 306, N-(4-(4-(2,3-dichlorobenzyl)piperazine-1-carbonyl)-2-(trifluoromethoxy)phenyl)quinoline-8-sulfonamide]
27 | 100 to 500 nM | O=C(c1ccc(NS(=O)(=O)c2cccc3cccnc23)c(OC(F)(F)F)c1)N1CCN(Cc2ccncc2Cl)CC1 [Compound 307, N-(4-(4-((3-chloropyridin-4-yl)methyl)piperazine-1-carbonyl)-2-(trifluoromethoxy)phenyl)quinoline-8-sulfonamide]
